From publication PMC11510424, “Developing Robust Human Liver Microsomal Stability Prediction Models: Leveraging Inter-Species Correlation with Rat Data” (Pharmaceutics, 2024)
Where two headings read alike, the source gives them in different places.

Method: The substrate depletion method was used to determine half-life (t1/2) of compounds by measuring the disappearance of the parent compound over time. Incubations were performed on a Tecan EVO 200 robotic system (Morrisville, NC, USA), equipped with a 96-channel head, Inheco heating block, and controlled by EVOware software (Version 3.5). Mixed-gender human liver microsomes were purchased from Xenotech (Kansas City, KS, USA) (Catalog: H0610). Gentest NADPH Regenerating Solution A and B (Catalog: 451220/451200), Axygen reservoirs (Catalog: RES-SW384-LP/RES-SW384-HP) were purchased from Corning Inc. (Corning, NY, USA). Incubation plates (384-well, 250 µL; Catalog# 186002632) and LC/MS analysis plates (384-well, 100 µL; Catalog# 186002631) were purchased from Waters Inc. (Milford, MA, USA). […] An albendazole solution in acetonitrile (ACN/IS) was prepared for use as an internal standard. Each 110 μL reaction mixture included the test compound (1 μM), HLM (0.5 mg/mL), and NADPH regenerating system in phosphate buffer (pH 7.4). The samples were incubated in 384-well plates at 37 °C for 0, 5, 10, 15, 30, and 60 min. At each designated time point, 10 μL of the mixture was transferred to another 384-well plate containing cold ACN/IS. The plates were then centrifuged at 3000 rpm for 20 min at 4 °C, and supernatants were collected into a 384-well injection plate. Sample quantification was performed using Thermo UPLC/HRMS and data were analyzed using TraceFinder software (Version 4.1). The data were then extracted, and half-life analysis was performed using our in-house Validator software (Version 1.0) as described previously.
[1] = mixed-gender HLM 0.5 mg/mL, test compound 1 μM, NADPH regenerating system, pH 7.4, 37 °C, 0-60 min, mean ± S.D. over 6 years, > 40 plates, t1/2 capped at 120 min

Compound | Half-Life (t1/2) (pH 7.4) [min] | Half-Life (t1/2) [1] [min]
Cc1cc(=O)n(-c2ccccc2)n1C [Antipyrine, antipyrine] | >120 | 
O=C1CC2(CCCC2)CC(=O)N1CCCCN1CCN(c2ncccn2)CC1 [Buspirone, buspirone] |  | 14.4 ± 4.1
CC(C)NCC(O)COc1cccc2ccccc12 (stereo not drawn) [Propranolol, propranolol] |  | 55.2 ± 10.1
